This is an account of results in patent US5753617A, “Peptide inhibitors of cellular adhesion” (Centocor, Inc., priority 1995, dated 1998).

Where two headings read alike, the source gives them in different places. Where a SMILES comes first, the peptide text is derived from it. Bridges are numbered along the chain shown (N, C = ends). [ ]: non-standard residue; d: D form. Ava = NCCCCC(=O)O

For data set [1] the following is noted: disulfide bond, water.
Another data set deals with T1, P-selectin (Homo sapiens, UniProt P16109).
T1 construct: P-selectin is isolated from human platelet lysates; from tissue; host or cells: human platelets (outdated platelet packs from a blood bank)
T1 sequence (P16109 42-830): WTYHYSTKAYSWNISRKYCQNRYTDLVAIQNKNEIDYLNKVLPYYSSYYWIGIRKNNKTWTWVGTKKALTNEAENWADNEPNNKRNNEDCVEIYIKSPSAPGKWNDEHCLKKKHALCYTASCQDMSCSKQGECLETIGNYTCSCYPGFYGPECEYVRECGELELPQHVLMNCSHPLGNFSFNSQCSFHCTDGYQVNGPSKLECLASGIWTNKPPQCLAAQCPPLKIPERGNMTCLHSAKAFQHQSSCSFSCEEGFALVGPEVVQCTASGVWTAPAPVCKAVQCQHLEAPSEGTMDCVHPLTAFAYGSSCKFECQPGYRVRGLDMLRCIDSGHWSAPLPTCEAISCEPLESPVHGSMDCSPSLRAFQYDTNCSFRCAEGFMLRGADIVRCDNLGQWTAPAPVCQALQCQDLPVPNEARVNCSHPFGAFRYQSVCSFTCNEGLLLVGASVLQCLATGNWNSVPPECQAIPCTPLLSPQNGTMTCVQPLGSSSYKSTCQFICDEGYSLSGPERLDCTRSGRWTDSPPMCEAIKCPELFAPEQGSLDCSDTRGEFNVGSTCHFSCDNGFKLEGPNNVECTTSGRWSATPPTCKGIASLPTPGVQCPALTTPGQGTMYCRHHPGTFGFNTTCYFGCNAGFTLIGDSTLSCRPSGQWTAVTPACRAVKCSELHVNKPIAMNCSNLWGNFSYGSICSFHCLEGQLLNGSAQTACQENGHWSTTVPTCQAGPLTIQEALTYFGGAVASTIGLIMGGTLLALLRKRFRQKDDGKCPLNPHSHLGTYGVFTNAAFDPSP
Nature of the data set: Inhibition of human neutrophil adhesion to purified P-selectin immobilized on plastic wells. The conditions noted are these: inhibiting the binding of human neutrophils to P-selectin. Format: cell-based. The method in brief: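 Isolated human neutrophils (2×10^5 per well) in HBSS with Ca2+/Mg2+ and HSA added to wells coated overnight at 4° C with platelet-derived P-selectin (5 micrograms/mL), HSA-blocked; 20 min at 22° C. Nonadherent cells removed by inverted centrifugation at 150 g; adherent cells quantified by myeloperoxidase activity.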

One may read the IC50 as the concentration needed to halve the response being measured. High values mean a need for much substance, low ones inhibition by little substance. In the case of `CC(C)[C@@H](NC(=O)[C@@H](Cc1c[nH]c2ccccc12)NC(=O)[C@H](NC(=O)[C@@H](Cc1c[nH]c2ccccc12)NC(=O)[C@H]1CSSC[C@@H](NC(=O)[C@@H](CCCCN)NC(=O)[C@H](N)CCCNC(=N)N)C(=O)N[C@@H](Cc2ccccc2)C(=O)NCC(=O)N1)[C@H](C)O)C(N)=O` [(18)] (H-[dR][dK][dC]FG[dC][dW][dT][dW][dV]-NH2; disulfide 3-6), the ring closure, yield of all isomers was 13.7% in data set [1] (from CC(C)[C@@H](NC(=O)[C@@H](Cc1c[nH]c2ccccc12)NC(=O)[C@H](NC(=O)[C@@H](Cc1c[nH]c2ccccc12)NC(=O)[C@@H](CS)NC(=O)CNC(=O)[C@H](Cc1ccccc1)NC(=O)[C@@H](CS)NC(=O)[C@@H](CCCCN)NC(=O)[C@H](N)CCCNC(=N)N)[C@H](C)O)C(N)=O, DMSO, 0.253 mM) and 13.7% in data set [1] (from CC(C)[C@@H](NC(=O)[C@@H](Cc1c[nH]c2ccccc12)NC(=O)[C@H](NC(=O)[C@@H](Cc1c[nH]c2ccccc12)NC(=O)[C@@H](CS)NC(=O)CNC(=O)[C@H](Cc1ccccc1)NC(=O)[C@@H](CS)NC(=O)[C@@H](CCCCN)NC(=O)[C@H](N)CCCNC(=N)N)[C@H](C)O)C(N)=O, DMSO, 0.253 mM, 16.0 h). At P-selectin, the IC50 is 49 µM.

For the molecule `CC(C)[C@@H](NC(=O)[C@@H](Cc1c[nH]c2ccccc12)NC(=O)[C@H](NC(=O)[C@@H](Cc1c[nH]c2ccccc12)NC(=O)[C@H]1CSSC[C@@H](NC(=O)[C@@H](CCCCN)NC(=O)[C@H](N)CCCNC(=N)N)C(=O)NCCCCC(=O)N1)[C@H](C)O)C(N)=O` [(21)] (H-[dR][dK][dC][Ava][dC][dW][dT][dW][dV]-NH2; disulfide 3-5), in data set [1] (from CC(C)[C@@H](NC(=O)[C@@H](Cc1c[nH]c2ccccc12)NC(=O)[C@H](NC(=O)[C@@H](Cc1c[nH]c2ccccc12)NC(=O)[C@@H](CS)NC(=O)CCCCNC(=O)[C@@H](CS)NC(=O)[C@@H](CCCCN)NC(=O)[C@H](N)CCCNC(=N)N)[C@H](C)O)C(N)=O, DMSO, 0.241 mM, 16.0 h), the ring closure, yield of all isomers turned out to be 13.2%. On P-selectin, this molecule gave an IC50 of 23 µM.

Turning to `CC(C)[C@@H](NC(=O)[C@@H](Cc1c[nH]c2ccccc12)NC(=O)[C@H](NC(=O)[C@@H](Cc1c[nH]c2ccccc12)NC(=O)[C@H]1CSSC[C@@H](NC(=O)[C@@H](CCCCN)NC(=O)[C@H](N)CCCNC(=N)N)C(=O)NCC(=O)NCC(=O)N1)[C@H](C)O)C(N)=O` [(25)] (H-[dR][dK][dC]GG[dC][dW][dT][dW][dV]-NH2; disulfide 3-6), the ring closure, yield of all isomers in data set [1] (from CC(C)[C@@H](NC(=O)[C@@H](Cc1cn(C=O)c2ccccc12)NC(=O)[C@H](NC(=O)[C@@H](Cc1cn(C=O)c2ccccc12)NC(=O)[C@@H](CS)NC(=O)CNC(=O)CNC(=O)[C@@H](CS)NC(=O)[C@@H](CCCCN)NC(=O)[C@H](N)CCCNC(=N)N)[C@H](C)O)C(N)=O, DMSO, 1.4 mM, 16.0 h, 2 steps) amounted to 2.4%. The molecule further returned an IC50 on P-selectin of 17 µM.

For the molecule `CC(C)[C@H](NC(=O)[C@H](Cc1c[nH]c2ccccc12)NC(=O)[C@@H](NC(=O)[C@H](Cc1c[nH]c2ccccc12)NC(=O)[C@@H]1CSSC[C@H](NC(=O)[C@@H](N)CCCCN)C(=O)NCC(=O)NCC(=O)N1)[C@@H](C)O)C(N)=O` [(27)] (H-KCGGCWTWV-NH2; disulfide 2-5), the ring closure, yield of all isomers in data set [1] (from CC(C)[C@H](NC(=O)[C@H](Cc1c[nH]c2ccccc12)NC(=O)[C@@H](NC(=O)[C@H](Cc1c[nH]c2ccccc12)NC(=O)[C@H](CS)NC(=O)CNC(=O)CNC(=O)[C@H](CS)NC(=O)[C@@H](N)CCCCN)[C@@H](C)O)C(N)=O, K3Fe(CN)6/NH4OH (half) and DMSO (half), 0.37 mM, 16.0 h) was 10.9%. At P-selectin, this molecule showed an IC50 of 22 µM.

Turning to `CC(C)[C@H](NC(=O)[C@H](Cc1c[nH]c2ccccc12)NC(=O)[C@@H](NC(=O)[C@H](Cc1c[nH]c2ccccc12)NC(=O)[C@@H]1CSSC[C@H](N)C(=O)NCC(=O)NCC(=O)N1)[C@@H](C)O)C(N)=O` [(29)] (H-CGGCWTWV-NH2; disulfide 1-4), the ring closure, yield of all isomers in data set [1] (from CC(C)[C@H](NC(=O)[C@H](Cc1c[nH]c2ccccc12)NC(=O)[C@@H](NC(=O)[C@H](Cc1c[nH]c2ccccc12)NC(=O)[C@H](CS)NC(=O)CNC(=O)CNC(=O)[C@@H](N)CS)[C@@H](C)O)C(N)=O, DMSO, 0.285 mM, 16.0 h) was 8.5%. For the same molecule, the IC50 on P-selectin stood at 325 µM.

For `CC[C@H](C)[C@H](NC(=O)[C@H](CCCCN)NC(=O)[C@@H](N)CCCNC(=N)N)C(=O)NCC(=O)NCC(=O)N[C@H]1CSSC[C@@H](C(N)=O)NC(=O)[C@H](Cc2c[nH]c3ccccc23)NC(=O)[C@H]([C@@H](C)O)NC(=O)[C@H](Cc2c[nH]c3ccccc23)NC1=O` [(33)] (H-RKIGGCWTWC-NH2; disulfide 6-10), the ring closure, yield of all isomers in data set [1] (from CC[C@H](C)[C@H](NC(=O)[C@H](CCCCN)NC(=O)[C@@H](N)CCCNC(=N)N)C(=O)NCC(=O)NCC(=O)N[C@@H](CS)C(=O)N[C@@H](Cc1c[nH]c2ccccc12)C(=O)N[C@H](C(=O)N[C@@H](Cc1c[nH]c2ccccc12)C(=O)N[C@@H](CS)C(N)=O)[C@@H](C)O, DMSO, 0.7 mM, 25.0 °C, 16.0 h) is 5.3%. At P-selectin, this molecule gave an IC50 of 468 µM.

Regarding `CC(C)[C@@H](NC(=O)[C@@H](Cc1c[nH]c2ccccc12)NC(=O)[C@H](NC(=O)[C@@H](Cc1c[nH]c2ccccc12)NC(=O)[C@H]1CSSC[C@@H](NC(=O)[C@@H](CCCCN)NC(=O)[C@H](N)CCCNC(=N)N)C(=O)N[C@@H](C)C(=O)N[C@@H](Cc2ccccc2)C(=O)N1)[C@H](C)O)C(N)=O` [(37)] (H-[dR][dK][dC]AF[dC][dW][dT][dW][dV]-NH2; disulfide 3-6), the ring closure, yield of all isomers in data set [1] (from CC(C)[C@@H](NC(=O)[C@@H](Cc1c[nH]c2ccccc12)NC(=O)[C@H](NC(=O)[C@@H](Cc1c[nH]c2ccccc12)NC(=O)[C@@H](CS)NC(=O)[C@H](Cc1ccccc1)NC(=O)[C@H](C)NC(=O)[C@@H](CS)NC(=O)[C@@H](CCCCN)NC(=O)[C@H](N)CCCNC(=N)N)[C@H](C)O)C(N)=O, air/Cu wire, ammonium acetate, 0.731 mM, 22.0 h) was 1.3%. Also, at P-selectin, the IC50 is 205 µM.

As for `CC(C)[C@@H](NC(=O)[C@@H](Cc1c[nH]c2ccccc12)NC(=O)[C@H](NC(=O)[C@@H](Cc1c[nH]c2ccccc12)NC(=O)[C@H]1CSSC[C@@H](NC(=O)[C@@H](CCCCN)NC(=O)[C@H](N)CCCNC(=N)N)C(=O)NCC(=O)N[C@@H](C)C(=O)N1)[C@H](C)O)C(N)=O` [(38)] (H-[dR][dK][dC]GA[dC][dW][dT][dW][dV]-NH2; disulfide 3-6), in data set [1] (from CC(C)[C@@H](NC(=O)[C@@H](Cc1c[nH]c2ccccc12)NC(=O)[C@H](NC(=O)[C@@H](Cc1c[nH]c2ccccc12)NC(=O)[C@@H](CS)NC(=O)[C@H](C)NC(=O)CNC(=O)[C@@H](CS)NC(=O)[C@@H](CCCCN)NC(=O)[C@H](N)CCCNC(=N)N)[C@H](C)O)C(N)=O, air/Cu wire, NH4OH, 3.31 mM, 20.0 h), the ring closure, yield of all isomers was 15.1%. Besides, the IC50 on P-selectin came to 75 µM.

The molecule `CC(C)[C@@H](NC(=O)[C@@H](Cc1c[nH]c2ccccc12)NC(=O)[C@H](NC(=O)[C@@H](Cc1c[nH]c2ccccc12)NC(=O)[C@H]1CSSC[C@@H](NC(=O)[C@@H](CCCCN)NC(=O)[C@H](N)CCCNC(=N)N)C(=O)N[C@@H](CCCNC(=N)N)C(=O)N[C@@H](Cc2ccccc2)C(=O)N1)[C@H](C)O)C(N)=O` [(39)] (H-[dR][dK][dC]RF[dC][dW][dT][dW][dV]-NH2; disulfide 3-6) came in with a ring closure, yield of all isomers in data set [1] (from CC(C)[C@@H](NC(=O)[C@@H](Cc1c[nH]c2ccccc12)NC(=O)[C@H](NC(=O)[C@@H](Cc1c[nH]c2ccccc12)NC(=O)[C@@H](CS)NC(=O)[C@H](Cc1ccccc1)NC(=O)[C@H](CCCNC(=N)N)NC(=O)[C@@H](CS)NC(=O)[C@@H](CCCCN)NC(=O)[C@H](N)CCCNC(=N)N)[C@H](C)O)C(N)=O, DMSO, 0.315 mM, 25.0 °C, 96.0 h) of 12.2%. The IC50 on P-selectin stood at 30.6 µM.

In turn, `CC(C)[C@@H](NC(=O)[C@@H](Cc1c[nH]c2ccccc12)NC(=O)[C@H](NC(=O)[C@@H](Cc1c[nH]c2ccccc12)NC(=O)[C@H]1CSSC[C@@H](NC(=O)[C@@H](CCCCN)NC(=O)[C@H](N)CCCNC(=N)N)C(=O)NCC(=O)N[C@@H](CC(N)=O)C(=O)N1)[C@H](C)O)C(N)=O` [(41)] (H-[dR][dK][dC]GN[dC][dW][dT][dW][dV]-NH2; disulfide 3-6) had a ring closure, yield of all isomers in data set [1] (from CC(C)[C@@H](NC(=O)[C@@H](Cc1c[nH]c2ccccc12)NC(=O)[C@H](NC(=O)[C@@H](Cc1c[nH]c2ccccc12)NC(=O)[C@@H](CS)NC(=O)[C@H](CC(N)=O)NC(=O)CNC(=O)[C@@H](CS)NC(=O)[C@@H](CCCCN)NC(=O)[C@H](N)CCCNC(=N)N)[C@H](C)O)C(N)=O, Cu wire, dilute NH4OH (printed NH2OH), pH 8, 3.2 mM, 20.0 h) of 6%. The molecule further yielded an IC50 on P-selectin of 26.2 µM.
